Assay results published in PMC9781916, “Antipsychotic- and Anxiolytic-like Properties of a Multimodal Compound JJGW08 in Rodents” (International Journal of Molecular Sciences, 2022).

Assays:
[1] = tested on: rats; test: Prepulse inhibition test after MK-801 in rats; format: in vivo; conditions: 3.0–30 mg/kg ip, MK-801 0.6 mg/kg ip
Experimental: Figure 5 The influence of JJGW08 on startle response inhibition (Panel (A)) and changes in startle response (Panel (B)) in prepulse inhibition test after MK-801 administration in rats. The test was conducted in the soundproof apparatus, and the startle response amplitude was recorded. The experimental session (after a 5-min habituation period) had strictly defined parameters (prepuls-and-pulse trials: 84/120–prepuls 84 dB (20 ms), pulse 120 dB (40 ms); 90/120–prepuls 90 dB (20 ms), pulse 120 dB (40 ms), sham stimulus (70 dB, 40 ms)), and the startle intensity for each stimulus used in the session was measured. JJGW08 was administered ip 30 min before the test, while MK-801 (0.6 mg/kg) was administered ip 15 min before the start of the experiment. The control group received 0.9% NaCl solution (ip) and MK-801 (0.6 mg/kg, ip). Values are expressed as mean ± SD, n = 7–8 rats per group. […]
The study was conducted as described in detail by Acewicz and colleagues. […] Startle responses, reflecting the motion of animals in the cylinder following the acoustic stimulus, were detected by a piezoelectric transducer mounted below the frame. […] Sound levels in the chambers were measured and calibrated with a sound meter. […] Startle responses were measured for 100 ms after the onset of the last stimulus within each trial. […]

[2] = tested on: mice; test: Spontaneous locomotor activity in mice; format: in vivo
Experimental: The locomotor activity of mice was measured as previously described using the same apparatus as described in paragraph 4.5. Each mouse was placed individually in a cage for a 30 min habituation period (directly after administration of the studied compound), and then the number of photobeams crossings was recorded (ambulation). Locomotor activity was evaluated every 1 or 5 min for 1–60 min depending on the observation period in behavioral tests (60 min for the hyperlocomotion test, 30 min for the marble burying test, and 1 min for the four-plate test). The cages were disinfected with an odorless disinfection solution after each mouse.

[3] = tested on: D2 receptors; set-up: method as in doi:10.1016/j.molstruc.2022.134585; conditions: cited from earlier work
[4] = tested on: mice; test: MK-801-induced hyperlocomotion test in mice; format: in vivo; conditions: doses 0.15–2.5 mg/kg ip, MK-801 0.2 mg/kg ip
Experimental: Locomotor activity was recorded in actometers separately for each mouse. After 30 min of adaptation, the number of crossings of photo beams was measured during 60 min. […] MK-801 (0.2 mg/kg, ip) was administered 15 min before the experiment, while amphetamine (2.5 mg/kg) was administered subcutaneously (sc) 30 min before the experiment. […] Values are expressed as means ± SD, n = 8–10 mice per group. Statistical analysis: one-way ANOVA (Newman–Keuls post hoc), * p < 0.05, ** p < 0.01, *** p < 0.001.
The test was performed according to the method described by Carlsson et al.. The mobility of the animals was measured in actometers, i.e., in plastic Opto M3 cages (22 × 12 × 13 cm) connected to a computer with MultiDevice Software v.1.30 (Columbus Instruments, Columbus, OH, USA). The experimental cages were equipped with infrared sources on one side and sensors receiving the emitted rays on the other side of the cage. The crossing of each beam of infrared rays was classified as motor activity. The animals were placed individually in experimental cages immediately after administration of the tested compound, 30 min before the start of the test, to adapt to the new conditions and exclude the occurrence of hyperactivity caused by the change of the environment. Spontaneous locomotor activity was measured every 5 min for 60 min. Mice received two injections: of the tested compound or reference substance (30 min before the test, ip) and of amphetamine (2.5 mg/kg, 30 min before the test, sc) or MK-801 (0.2 mg/kg, 15 min before the test, ip). Control groups received an injection of saline and amphetamine or MK-801, or two injections of saline, respectively. Olanzapine was used as a reference compound.

COc1ccccc1N1CCN(CCCCCOc2ccccc2C(N)=O)CC1.Cl [JJGW08, 2-{5-[4-(2-metoksyfenylo)piperazin-1-ylo]pentoxy}benzamide hydrochloride]
reversal of deficits in sensorimotor gating induced by MK-801 (in words) [1]: did not reverse the deficits
startle reaction inhibition (%PPI) ([1]; prepulse 84 or 90 dB): −0.2 to 24.4%
Number of Crossings ([2]; 0.15 mg/kg ip, 1 min session): 38
Number of Crossings ([2]; 0.15 mg/kg ip, 30 min session): 547
Number of Crossings ([2]; 0.15 mg/kg ip, 60 min session): 1346
Number of Crossings ([2]; 0.3 mg/kg ip, 1 min session): 46
Number of Crossings ([2]; 0.3 mg/kg ip, 30 min session): 1027
Number of Crossings ([2]; 0.3 mg/kg ip, 60 min session): 1588
Number of Crossings ([2]; 0.625 mg/kg ip, 1 min session): 27
Number of Crossings ([2]; 0.625 mg/kg ip, 30 min session): 634
Number of Crossings ([2]; 0.625 mg/kg ip, 60 min session): 1671
Number of Crossings ([2]; 1.25 mg/kg ip, 1 min session): 22
Number of Crossings ([2]; 1.25 mg/kg ip, 30 min session): 1181
Number of Crossings ([2]; 1.25 mg/kg ip, 60 min session): 1769
Number of Crossings ([2]; 2.5 mg/kg ip, 1 min session): 19
Number of Crossings ([2]; 2.5 mg/kg ip, 30 min session): 437
Number of Crossings ([2]; 2.5 mg/kg ip, 60 min session): 1450
effect on locomotor activity (in words) ([2]; 0.15–2.5 mg/kg ip, 60-min and 30-min sessions): did not affect locomotor activity
affinity (in words) [3]: high affinity
reduction of MK-801-induced hyperactivity [4]: 24–71%
